A word on the IC50: it is the concentration that gives 50% inhibition. A higher IC50 goes with a need for much substance.

The experiment concerns the target T1, Human HPK1, catalytic domain (Homo sapiens, UniProt Q92918).
T1 construct: purchased Carna
T1 sequence (Q92918 1-346): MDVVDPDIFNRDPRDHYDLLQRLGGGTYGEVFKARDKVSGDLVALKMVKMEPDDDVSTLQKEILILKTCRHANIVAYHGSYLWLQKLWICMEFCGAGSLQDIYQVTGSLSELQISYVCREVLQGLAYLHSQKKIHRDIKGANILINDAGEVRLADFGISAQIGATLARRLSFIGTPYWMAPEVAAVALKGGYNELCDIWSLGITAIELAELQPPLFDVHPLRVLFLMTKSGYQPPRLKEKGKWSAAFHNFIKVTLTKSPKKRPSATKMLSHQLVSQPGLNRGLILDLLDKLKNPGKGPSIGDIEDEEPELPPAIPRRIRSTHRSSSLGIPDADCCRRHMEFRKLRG
The experiment is described as follows: HPK1-SLP76 TR-FRET assay. It is filed as biochemical. As to conditions: 75 pM HPK1, 10 uM ATP, 10 nM SLP76, 30 min compound pre-incubation.
`COc1cc2c(cc1Nc1ncc(C(N)=O)c(NCc3ccc(C#N)cc3)n1)CN(C)CC2` [Example 26-59, 4-{[(4-cyanophenyl)methyl]amino}-2-[(6-methoxy-2-methyl-1,2,3,4-tetrahydroisoquinolin-7-yl)amino]pyrimidine-5-carboxamide] had a half-maximal inhibitory concentration (IC50) of 0.0483 µM.

On to `COc1cc2c(cc1Nc1ncc(C(N)=O)c(NCc3nccs3)n1)CN(C)CC2` [Example 26-60, 2-[(6-methoxy-2-methyl-1,2,3,4-tetrahydroisoquinolin-7-yl)amino]-4-{[(1,3-thiazol-2-yl)methyl]amino}pyrimidine-5-carboxamide], for which the half-inhibitory concentration (IC50) amounted to 0.00489 µM.

`COc1cc2c(cc1Nc1ncc(C(N)=O)c(NCc3ccc(C(F)(F)F)cc3)n1)CN(C)CC2` [Example 26-61, 2-[(6-methoxy-2-methyl-1,2,3,4-tetrahydroisoquinolin-7-yl)amino]-4-({[4-(trifluoromethyl)phenyl]methyl}amino)pyrimidine-5-carboxamide] registered an IC50 of 0.146 µM.

The molecule `COc1cc2c(cc1Nc1ncc(C(N)=O)c(N[C@H]3c4ccccc4C[C@H]3CO)n1)CN(C)CC2` [Example 26-62, 4-{[(1R,2R)-2-(hydroxymethyl)-2,3-dihydro-1H-inden-1-yl]amino}-2-[(6-methoxy-2-methyl-1,2,3,4-tetrahydroisoquinolin-7-yl)amino]pyrimidine-5-carboxamide] returned an IC50 of 0.0156 µM.

Molecule `COc1cc2c(cc1Nc1ncc(C(N)=O)c(N[C@H]3c4ccccc4C[C@H]3O)n1)CN(C)CC2` [Example 26-63, 4-{[(1S,2R)-2-hydroxy-2,3-dihydro-1H-inden-1-yl]amino}-2-[(6-methoxy-2-methyl-1,2,3,4-tetrahydroisoquinolin-7-yl)amino]pyrimidine-5-carboxamide] showed a 50% inhibitory concentration (IC50) of 0.109 µM.

In turn, `COc1cc2c(cc1Nc1ncc(C(N)=O)c(N[C@@H]3c4ccccc4C[C@@H]3O)n1)CN(C)CC2` [Example 26-64, 4-{[(1R,2S)-2-hydroxy-2,3-dihydro-1H-inden-1-yl]amino}-2-[(6-methoxy-2-methyl-1,2,3,4-tetrahydroisoquinolin-7-yl)amino]pyrimidine-5-carboxamide] had a concentration for half-maximal inhibition (IC50) of 0.00086 µM.

As for `COc1cc2c(cc1Nc1ncc(C(N)=O)c(N[C@@H]3c4ccccc4C[C@H]3O)n1)CN(C)CC2` [Example 26-65, 4-{[(1R,2R)-2-hydroxy-2,3-dihydro-1H-inden-1-yl]amino}-2-[(6-methoxy-2-methyl-1,2,3,4-tetrahydroisoquinolin-7-yl)amino]pyrimidine-5-carboxamide], half-maximal inhibition (IC50) was put at 0.0178 µM.

As to `COc1cc2c(cc1Nc1ncc(C(N)=O)c(N[C@H]3c4ccccc4C[C@@H]3O)n1)CN(C)CC2` [Example 26-66, 4-{[(1S,2S)-2-hydroxy-2,3-dihydro-1H-inden-1-yl]amino}-2-[(6-methoxy-2-methyl-1,2,3,4-tetrahydroisoquinolin-7-yl)amino]pyrimidine-5-carboxamide], the IC50 came out at 0.193 µM.

In turn, `COc1cc2c(cc1Nc1ncc(C(N)=O)c(N[C@@H]3CCc4ccccc43)n1)CN(C)CC2` [Example 26-67, 4-{[(1R)-2,3-dihydro-1H-inden-1-yl]amino}-2-[(6-methoxy-2-methyl-1,2,3,4-tetrahydroisoquinolin-7-yl)amino]pyrimidine-5-carboxamide] gave an IC50 of 0.00474 µM.

The molecule `COc1cc2c(cc1Nc1ncc(C(N)=O)c(NC3CCc4cc(F)cc(F)c43)n1)CN(C)CC2` (centres unmarked) [Example 26-68, 4-[(5,7-difluoro-2,3-dihydro-1H-inden-1-yl)amino]-2-[(6-methoxy-2-methyl-1,2,3,4-tetrahydroisoquinolin-7-yl)amino]pyrimidine-5-carboxamide] displayed an IC50 of 0.00262 µM.

As to `COc1ccc2c(c1)C(Nc1nc(Nc3cc4c(cc3OC)CCN(C)C4)ncc1C(N)=O)CC2` (centres unmarked) [Example 26-69, 4-[(6-methoxy-2,3-dihydro-1H-inden-1-yl)amino]-2-[(6-methoxy-2-methyl-1,2,3,4-tetrahydroisoquinolin-7-yl)amino]pyrimidine-5-carboxamide], the half-inhibitory concentration (IC50) came to 0.0425 µM.

Take `COc1cc2c(cc1Nc1ncc(C(N)=O)c(NC3CCc4c(F)ccc(F)c43)n1)CN(C)CC2` (centres unmarked) [Example 26-70, 4-[(4,7-difluoro-2,3-dihydro-1H-inden-1-yl)amino]-2-[(6-methoxy-2-methyl-1,2,3,4-tetrahydroisoquinolin-7-yl)amino]pyrimidine-5-carboxamide]: the IC50 came to 0.00271 µM.

`COc1cc2c(cc1Nc1ncc(C(N)=O)c(NC3CCc4ccc(C)cc43)n1)CN(C)CC2` (centres unmarked) [Example 26-71, 2-[(6-methoxy-2-methyl-1,2,3,4-tetrahydroisoquinolin-7-yl)amino]-4-[(6-methyl-2,3-dihydro-1H-inden-1-yl)amino]pyrimidine-5-carboxamide] registered an IC50 of 0.0328 µM.

`COc1cc2c(cc1Nc1ncc(C(N)=O)c(NCC3CCNCC3)n1)CN(C)CC2` [Example 26-72, 2-[(6-methoxy-2-methyl-1,2,3,4-tetrahydroisoquinolin-7-yl)amino]-4-{[(piperidin-4-yl)methyl]amino}pyrimidine-5-carboxamide] gave an IC50 of 0.00123 µM.

The values above are taken from patent US20230416225A1, “DIAMINOPYRIMIDINE CARBOXAMIDE INHIBITORS OF HPK1” (MERCK SHARP & DOHME LLC, priority 2020, published 2023).
